In patent US12583851B2, “Heteroaryl-substituted pyrazine derivatives as pesticides” (Elanco Animal Health GmbH, priority 2019, dated 2026):

What was measured:
Type in all cases: in vivo
[1] = system: larvae of the banded cucumber beetle (Diabrotica balteata); test: Diabrotica balteata spray test; details: 168 h, after 7 days, read-out: efficacy (seedling growth); for pest or weed control at 6.4 µg/disc, 20 g/ha: 20 g/ha (=6.4 μg/well); for pest or weed control at 32 µg/disc, 100 g/ha: 100 g/ha (=32 μg/well)
Outline: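 Efficacy was read 7 days after infesting each unit with 10–20 banded cucumber beetle larvae, as % of seedlings growing like untreated, uninfested controls. Before infestation, wheat seeds germinated 1 day on agar (5 per well) were sprayed with the active ingredient. The active was formulated in acetone/DMF and diluted in water containing emulsifier.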

[2] = system: fall armyworm larvae (Spodoptera frugiperda); test: Spodoptera frugiperda spray test; details: 168 h, maize leaf sections, after 7 days
Outline: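 Percent larval kill read at day 7, from 0% (no caterpillars dead) to 100% (all dead). Larvae were placed on dried Zea mays leaf discs previously sprayed with test preparations made from an acetone/DMF solution diluted in 1000 ppm emulsifier-containing water.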

[3] = system: adult cat fleas (Ctenocephalides felis); test: Ctenocephalides felis in-vitro contact test, adult cat flea; details: after 48 hours, read-out: efficacy (fleas dead or moribund); for pest or weed control at 5 µg/cm2, 500 g/ha: 5 μg/cm^2 (=500 g/ha); for pest or weed control at 1 µg/cm2, 100 g/ha: 1 μg/cm^2 (=100 g/ha)
Procedure: Ctenocephalides felis—In-Vitro Contact Tests Adult Cat Flea
(§1) 9 mg compound is solved in 1 ml acetone and diluted with acetone to the desired concentration. 250 μL of the test solution is filled in 25 mL glass test tubes and homogeneously distributed on the inner walls by rotation and tilting on a shaking device (2 h at 30 rpm). With a compound concentration of 900 ppm, an inner surface of 44.7 cm^2 and a homogeneous distribution, a dose of 5 μg/cm^2 is achieved.
(§2) After the solvent has evaporated, each test tube is filled with 5-10 adult cat fleas (Ctenocephalides felis), closed with a perforated lid and incubated in a lying position at room temperature and relative humidity. After 48 hours efficacy is determined. The fleas are patted on the ground of the tubes and are incubated on a heating plate at 45-50° C. for at most 5 minutes Immotile or uncoordinated moving fleas, which are not able to escape the heat by climbing upwards, are marked as dead or moribund.
An efficacy of 100% means all fleas are dead or moribund; 0% means no fleas are dead or moribund.

[4] = system: Rhipicephalus (Boophilus) microplus larvae (strain Parkhurst, resistant against synthetic pyrethroids); test: Rhipicephalus (Boophilus) microplus in-vitro contact test, larval cattle tick; details: after 48 hours, read-out: efficacy (larvae dead or moribund); for pest or weed control at 1 µg/cm2, 100 g/ha: 1 μg/cm^2 (=100 g/ha); for pest or weed control at 5 µg/cm2, 500 g/ha: 5 μg/cm^2 (=500 g/ha)
Outline: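 Pyrethroid-resistant larvae (strain Parkhurst), 20–50 per tube, exposed by contact to a dried acetone film of compound (5 μg/cm² at 900 ppm) for 48 h at 27 °C and 85% humidity. Percent dead or moribund larvae scored from negative geotactic behaviour.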

[5] = system: adult brown dog ticks (Rhipicephalus sanguineus); test: Rhipicephalus sanguineus in-vitro contact test, adult brown dog ticks; details: 48 h, after 48 hours, read-out: efficacy (ticks dead or moribund); for pest or weed control at 5 µg/cm2, 500 g/ha: 5 μg/cm^2 (=500 g/ha)
Procedure: Rhipicephalus sanguineus—In-Vitro Contact Tests with Adult Brown Dog Ticks
as §1, with “mL” for “ml”, “[…]” for “250 μL”
as §2, with “brown dog ticks (Rhipicephalus sanguineus),” for “cat fleas (Ctenocephalides felis),”, “ticks” for “fleas”, “ticks,” for “fleas,”
An efficacy of 100% means all ticks are dead or moribund; 0% means no ticks are dead or moribund.

SMILES	pest or weed control at 6.4 µg/disc, 20 g/ha [1]	pest or weed control at 32 µg/disc, 100 g/ha [1]	mortality at 100 g/ha [2]	pest or weed control at 5 µg/cm2, 500 g/ha [3]	pest or weed control at 1 µg/cm2, 100 g/ha [4]	pest or weed control at 5 µg/cm2, 500 g/ha [4]	pest or weed control at 5 µg/cm2, 500 g/ha [5]	pest or weed control at 1 µg/cm2, 100 g/ha [3]	pest or weed control at 1 µg/cm2, 100 g/ha ([5]; 1 μg/cm^2 (=100 g/ha))
CC(NC(=O)c1cc(Br)cc(C(F)(F)F)c1)c1nccnc1-c1ncc(C(=O)N(C)CC2CC2)s1 (racemic) [Example I-119, (rac)-2-(3-{1-[3-Bromo-5-(trifluoromethyl)benzamido]ethyl}pyrazin-2-yl)-N-(cyclopropylmethyl)-N-methyl-1,3-thiazole-5-carboxamide]	100%	100%	100%	90%	100%	100%			
CC(NC(=O)c1cc(Br)cc(C#N)c1)c1nccnc1-c1ccc(Cl)cn1 (racemic) [Example I-48, (rac)-3-Bromo-N-{1-[3-(5-chloropyridin-2-yl)pyrazin-2-yl]ethyl}-5-cyanobenzamide]	80%	100%	100%				80%		
CC(NC(=O)c1cc(Br)cc(C#N)c1)c1nccnc1-c1ccc(C(=O)N2CCOCC2)cn1 (racemic) [Example I-33, (rac)-3-Bromo-5-cyano-N-[1-{3-[5-(morpholine-4-carbonyl)pyridin-2-yl]pyrazin-2-yl}ethyl]benzamide]				100%	90%	100%		100%	
CC(NC(=O)c1cc(Cl)cc(Br)c1)c1nccnc1-c1ccc(Cl)cn1 (centres unmarked) [Example I-19]	100%	100%	100%	80%					
COc1ccc(-c2nccnc2C(C)NC(=O)c2cc(Br)cc(OC(F)(F)F)c2)nc1 (centres unmarked) [Example I-27]		100%		80%	90%	80%		80%	
CCN(C)C(=O)c1cnc(-c2nccnc2C(C)NC(=O)c2cc(C(F)(F)F)cc(C(F)(F)F)c2)s1 (racemic) [Example I-72, (rac)-2-(3-{1-[3,5-Bis(trifluoromethyl)benzamido]ethyl}pyrazin-2-yl)-N-ethyl-N-methyl-1,3-thiazole-5-carboxamide]	100%	100%	100%		100%	100%	80%		
CC(NC(=O)c1cc(C(F)(F)F)cc(C(F)(F)F)c1)c1nccnc1-n1cc(C(=O)N2C[C@@H](C)O[C@@H](C)C2)cn1 (mixture of isomers) [Example I-138, (rac)-N-[1-(3-{4-[(cis)-2,6-Dimethylmorpholine-4-carbonyl]-1H-pyrazol-1-yl}pyrazin-2-yl)ethyl]-3,5-bis(trifluoromethyl)benzamide]		100%	100%		100%	100%	100%		100%
CC(NC(=O)c1cc(Cl)cc(C(F)(F)F)c1)c1nccnc1-c1ncc(C(=O)N2CCOCC2)s1 (racemic) [Example I-59, (rac)-3-Chloro-N-[1-{3-[5-(morpholine-4-carbonyl)-1,3-thiazol-2-yl]pyrazin-2-yl}ethyl]-5-(trifluoromethyl)benzamide]		100%	83%		100%	100%	100%		
CC(NC(=O)c1cc(Br)cc(OC(F)(F)F)c1)c1nccnc1-n1cc(C(F)(F)F)cn1 (racemic) [Example I-94, (rac)-3-Bromo-5-(trifluoromethoxy)-N-[1-{3-[4-(trifluoromethyl)-1H-pyrazol-1-yl]pyrazin-2-yl}ethyl]benzamide]		100%	100%		100%	100%	80%		
CCNC(=O)c1ccc(-c2nccnc2C(C)NC(=O)c2cc(C(F)(F)F)cc(C(F)(F)F)c2)nc1 (racemic) [Example I-35, (rac)-6-(3-{1-[3,5-Bis(trifluoromethyl)benzamido]ethyl}pyrazin-2-yl)-N-ethylpyridine-3-carboxamide]				100%	100%	100%		80%	
CC(NC(=O)c1cc(C(F)(F)F)cc(C(F)(F)F)c1)c1nccnc1-c1ncc(C(=O)N2CCCOCC2)s1 (racemic) [Example I-68, (rac)-N-[1-{3-[5-(1,4-Oxazepane-4-carbonyl)-1,3-thiazol-2-yl]pyrazin-2-yl}ethyl]-3,5-bis(trifluoromethyl)benzamide]		100%		100%	100%	100%	100%	100%	
CC(NC(=O)c1cc(C(F)(F)F)cc(C(F)(F)F)c1)c1nccnc1-c1ccc(C(=O)N(C)CC2CC2)cn1 (racemic) [Example I-32, (rac)-6-(3-{1-[3,5-Bis(trifluoromethyl)benzamido]ethyl}pyrazin-2-yl)-N-(cyclopropylmethyl)-N-methylpyridine-3-carboxamide]			100%	100%	100%	100%			
CC(NC(=O)c1cc(Br)cc(OC(F)(F)F)c1)c1nccnc1-c1ncc(C(=O)N2CCOCC2)s1 (racemic) [Example I-61, (rac)-3-Bromo-N-[1-{3-[5-(morpholine-4-carbonyl)-1,3-thiazol-2-yl]pyrazin-2-yl}ethyl]-5-(trifluoromethoxy)benzamide]				100%	100%	100%		100%	
CC(NC(=O)c1cc(Br)cc(C(F)(F)F)c1)c1nccnc1-c1ncc(C(=O)N(C)C)s1 (racemic) [Example I-118, (rac)-2-(3-{1-[3-Bromo-5-(trifluoromethyl)benzamido]ethyl}pyrazin-2-yl)-N,N-dimethyl-1,3-thiazole-5-carboxamide]	100%	100%	100%	90%	100%	100%			
CCN(C)C(=O)c1cnn(-c2nccnc2C(C)NC(=O)c2cc(C(F)(F)F)cc(C(F)(F)F)c2)c1 (racemic) [Example I-89, (rac)-1-(3-{1-[3,5-Bis(trifluoromethyl)benzamido]ethyl}pyrazin-2-yl)-N-ethyl-N-methyl-1H-pyrazole-4-carboxamide]	100%	100%	100%		100%	100%			
